In US20230081426A1, “COMPOUNDS AND METHODS FOR KRAS MODULATION AND INDICATIONS THEREFOR” (Plexxikon Inc., priority 2020, published 2023) one finds IC50 data, which are given here for 20 compounds.

Structures are written as SMILES.

The experiment deals with T1, G12D-mutant human KRAS (amino acid residues 1-188) (Homo sapiens, UniProt P01116, G12D).
T1 construct: G12D or G12C-mutant human KRAS (amino acid residues 1-188) with FLAG tag; made in house; host or cells: E. coli
T1 sequence (P01116 1-188 isoform P01116-2 G12D): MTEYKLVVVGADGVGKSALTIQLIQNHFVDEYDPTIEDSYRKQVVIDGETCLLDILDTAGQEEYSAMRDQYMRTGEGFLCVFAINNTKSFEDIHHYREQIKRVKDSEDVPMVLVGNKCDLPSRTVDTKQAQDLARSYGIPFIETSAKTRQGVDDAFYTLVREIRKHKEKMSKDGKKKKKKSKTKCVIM
Put plainly: KRAS Binding Disruption Assay (AlphaScreen; biotinylated KRpep-2d analogue or RAF1-RBD), G12D. Conditions: KRAS G12D; geometric mean; read-out: KRAS GMean IC50 (uM) MUTATION: G12D. As to the method: Compound binding disrupts the interaction of KRpep-2d or RAF1-RBD with KRAS, leading to a decrease in Alpha signal.
All assay components were prepared in 20 mM HEPES (pH 7.5), 100 mM NaCl, 5 mM MgCl2, 0.01% Tween-20, and 0.01% BSA. Biotinylated analogues of KRpep-2d were custom synthesized. The binding disruption assays were performed using 5-20 nM of mutant KRAS and 5-20 nM of either biotinylated KRpep-2d analogue or RAF1-RBD. 19 μL of KRAS protein and 4 μL of biotinylated KRpep-2d or RAF1-RBD were added to the wells of a 384-well plate containing 1 μL of various concentrations of test compound or DMSO vehicle. 16 wells containing KRAS, biotinylated KRpep-2d or RAF1-RBD, and 5% DMSO served as high controls. 16 wells containing KRAS only and 5% DMSO served as low controls. Binding reactions were incubated for 1 hour at 25° C., then Anti-Flag Acceptor and Streptavidin Donor Alpha beads were added at a final concentration of 10 μg/mL for an additional hour at room temperature. Alpha signal was read out on a Perkin Elmer Envision HTS instrument. The percentage inhibition at individual compound concentrations relative to high and low controls was calculated. The data were analyzed by using nonlinear regression to generate IC50 values.
In general terms: Alpha assays give light when donor and acceptor beads are brought close together.
For orientation: IC50 means the concentration that gives 50% inhibition. Consider `CN1CCC[C@H]1COc1nc(N2C[C@H]3CC[C@@H](C2)N3C(=O)c2n[nH]c(=O)[nH]2)c2ccc(-c3cc(O)cc4ccccc34)cc2n1` [P-0113, 5-((1R,5S)-3-(7-(3-hydroxynaphthalen-1-yl)-2-(((S)-1-methylpyrrolidin-2-yl)methoxy)quinazolin-4-yl)-3,8-diazabicyclo[3.2.1]octane-8-carbonyl)-2,4-dihydro-3H-1,2,4-triazol-3-one], for which the IC50 is 10 to 100 µM.

Turning to `O=C(CO)C1(O)CN(c2nc(N3C[C@H]4CC[C@@H](C3)N4)c3ccc(-c4cc(O)cc5ccccc45)c(F)c3n2)C1` [P-0507, 1-(1-(4-((1R,5S)-3,8-diazabicyclo[3.2.1]octan-3-yl)-8-fluoro-7-(3-hydroxynaphthalen-1-yl)quinazolin-2-yl)-3-hydroxyazetidin-3-yl)-2-hydroxyethan-1-one], the IC50 was 0.0001 to 10 µM.

On to `Oc1cc(-c2ccc3c(N4C[C@H]5CC[C@@H](C4)N5)nc(N4CCC5(CNC5)C4)nc3c2F)c2ccccc2c1` [P-0508, 4-(4-((1R,5S)-3,8-diazabicyclo[3.2.1]octan-3-yl)-8-fluoro-2-(2,6-diazaspiro[3.4]octan-6-yl)quinazolin-7-yl)naphthalen-2-ol], for which the concentration for half-maximal inhibition (IC50) lay within 0.0001 to 10 µM.

In the case of `Oc1cc(-c2ccc3c(N4C[C@H]5CC[C@@H](C4)N5)nc(N4CC5CCNCC5C4)nc3c2F)c2ccccc2c1` (stereo partly drawn) [P-0509, 4-(4-((1R,5S)-3,8-diazabicyclo[3.2.1]octan-3-yl)-8-fluoro-2-(octahydro-2H-pyrrolo[3,4-c]pyridin-2-yl)quinazolin-7-yl)naphthalen-2-ol], the half-inhibitory concentration (IC50) fell in the range of 0.0001 to 10 µM.

For the compound `C#Cc1cccc2[nH]cc(-c3ccc4c(N5C[C@H]6CC[C@@H](C5)N6)nc(OCC56CCCN5CCC6)nc4c3F)c12` [P-0513, 4-((1R,5S)-3,8-diazabicyclo[3.2.1]octan-3-yl)-7-(4-ethynyl-1H-indol-3-yl)-8-fluoro-2-((tetrahydro-1H-pyrrolizin-7a(5H)-yl)methoxy)quinazoline], the IC50 was 0.0001 to 10 µM.

As for `CC(=O)c1c(F)ccc2[nH]cc(-c3ccc4c(N5C[C@H]6CC[C@@H](C5)N6)nc(OCC56CCCN5CCC6)nc4c3F)c12` [P-0514], the half-inhibitory concentration (IC50) was 0.0001 to 10 µM.

With `C#Cc1c(F)ccc2[nH]cc(-c3ccc4c(N5C[C@H]6CC[C@@H](C5)N6)nc(OCC56CCCN5CCC6)nc4c3F)c12` [P-0515], the half-inhibitory concentration (IC50) lay within 0.0001 to 10 µM.

In the case of `CC(CO)(COc1nc(N2C[C@H]3CC[C@@H](C2)N3)c2ccc(-c3cc(O)cc4ccccc34)c(F)c2n1)c1ccccc1` (stereo partly drawn) [P-0516, 4-(4-((1R,5S)-3,8-diazabicyclo[3.2.1]octan-3-yl)-8-fluoro-2-(3-hydroxy-2-methyl-2-phenylpropoxy)quinazolin-7-yl)naphthalen-2-ol], the IC50 was in the range of 0.0001 to 10 µM.

Consider `O=C(O)CCc1cccc2[nH]cc(-c3ccc4c(N5C[C@H]6CC[C@@H](C5)N6)nc(OCC56CCCN5CCC6)nc4c3F)c12` [P-0518, 3-(3-(4-((1R,5S)-3,8-diazabicyclo[3.2.1]octan-3-yl)-8-fluoro-2-((tetrahydro-1H-pyrrolizin-7a(5H)-yl)methoxy)quinazolin-7-yl)-1H-indol-4-yl)propanoic acid], for which the half-inhibitory concentration (IC50) lay in the range of 0.0001 to 10 µM.

In the case of `N#CCCc1cccc2[nH]cc(-c3ccc4c(N5C[C@H]6CC[C@@H](C5)N6)nc(OCC56CCCN5CCC6)nc4c3F)c12` [P-0519, 3-(3-(4-((1R,5S)-3,8-diazabicyclo[3.2.1]octan-3-yl)-8-fluoro-2-((tetrahydro-1H-pyrrolizin-7a(5H)-yl)methoxy)quinazolin-7-yl)-1H-indol-4-yl)propanenitrile], the IC50 lay in the range of 0.0001 to 10 µM.

In the case of `O=C1NCCN1CCOc1nc(N2C[C@H]3CC[C@@H](C2)N3)c2ccc(-c3cc(O)cc4ccccc34)c(F)c2n1` [P-0520, 1-(2-((4-((1R,5S)-3,8-diazabicyclo[3.2.1]octan-3-yl)-8-fluoro-7-(3-hydroxynaphthalen-1-yl)quinazolin-2-yl)oxy)ethyl)imidazolidin-2-one], the IC50 was 0.0001 to 10 µM.

Regarding `C#Cc1cccc2cccc(-c3ccc4c(N5C[C@H]6CC[C@@H](C5)N6)nc(OCC56CCCN5CCC6)nc4c3F)c12` [P-0521, 4-((1R,5S)-3,8-diazabicyclo[3.2.1]octan-3-yl)-7-(8-ethynylnaphthalen-1-yl)-8-fluoro-2-((tetrahydro-1H-pyrrolizin-7a(5H)-yl)methoxy)quinazoline], the half-inhibitory concentration (IC50) is 0.0001 to 10 µM.

As for `CC(=O)c1cccc2cccc(-c3ccc4c(N5C[C@H]6CC[C@@H](C5)N6)nc(OCC56CCCN5CCC6)nc4c3F)c12` [P-0522, 1-(8-(4-((1R,5S)-3,8-diazabicyclo[3.2.1]octan-3-yl)-8-fluoro-2-((tetrahydro-1H-pyrrolizin-7a(5H)-yl)methoxy)quinazolin-7-yl)naphthalen-1-yl)ethan-1-one], the half-maximal inhibitory concentration (IC50) is 0.0001 to 10 µM.

With `Cc1ccc2[nH]ncc2c1-c1c(Cl)cc2c(N3C[C@H]4CC[C@@H](C3)N4)nc(OCC34CCCN3CCC4)nc2c1F` [P-0523, 4-((1R,5S)-3,8-diazabicyclo[3.2.1]octan-3-yl)-6-chloro-8-fluoro-7-(5-methyl-1H-indazol-4-yl)-2-((tetrahydro-1H-pyrrolizin-7a(5H)-yl)methoxy)quinazoline], the IC50 was in the range of 0.0001 to 10 µM.

Turning to `OCC(CO)COc1nc(N2C[C@H]3CC[C@@H](C2)N3)c2ccc(-c3cc(O)cc4ccccc34)c(F)c2n1` [P-0524, 2-(((4-((1R,5S)-3,8-diazabicyclo[3.2.1]octan-3-yl)-8-fluoro-7-(3-hydroxynaphthalen-1-yl)quinazolin-2-yl)oxy)methyl)propane-1,3-diol], the IC50 was 0.0001 to 10 µM.

Take `CC(CO)(CO)COc1nc(N2C[C@H]3CC[C@@H](C2)N3)c2ccc(-c3cc(O)cc4ccccc34)c(F)c2n1` [P-0525, 2-(((4-((1R,5S)-3,8-diazabicyclo[3.2.1]octan-3-yl)-8-fluoro-7-(3-hydroxynaphthalen-1-yl)quinazolin-2-yl)oxy)methyl)-2-methylpropane-1,3-diol]: the 50% inhibitory concentration (IC50) fell in the range of 0.0001 to 10 µM.

Take `Oc1cc(-c2ccc3c(N4C[C@H]5CC[C@@H](C4)N5)nc(N4CCC5(CCNC5)C4)nc3c2F)c2ccccc2c1` (stereo partly drawn) [P-0526, 4-(4-((1R,5S)-3,8-diazabicyclo[3.2.1]octan-3-yl)-8-fluoro-2-(2,7-diazaspiro[4.4]nonan-2-yl)quinazolin-7-yl)naphthalen-2-ol]: the IC50 was in the range of 0.0001 to 10 µM.

In the case of `Oc1cc(-c2ccc3c(N4C[C@H]5CC[C@@H](C4)N5)nc(N4CCC5(CCOCC5)C4)nc3c2F)c2ccccc2c1` [P-0527, 4-(4-((1R,5S)-3,8-diazabicyclo[3.2.1]octan-3-yl)-8-fluoro-2-(8-oxa-2-azaspiro[4.5]decan-2-yl)quinazolin-7-yl)naphthalen-2-ol], the IC50 lay in the range of 0.0001 to 10 µM.

Turning to `Oc1cc(-c2ccc3c(N4C[C@H]5CC[C@@H](C4)N5)nc(N4CCC5(CCOC5)C4)nc3c2F)c2ccccc2c1` (stereo partly drawn) [P-0528, 4-(4-((1R,5S)-3,8-diazabicyclo[3.2.1]octan-3-yl)-8-fluoro-2-(2-oxa-7-azaspiro[4.4]nonan-7-yl)quinazolin-7-yl)naphthalen-2-ol], the IC50 was in the range of 0.0001 to 10 µM.

Turning to `CNCC1(CC#N)CCN(c2nc(N3C[C@H]4CC[C@@H](C3)N4)c3ccc(-c4cc(O)cc5ccccc45)c(F)c3n2)C1` (stereo partly drawn) [P-0529, 2-(1-(4-((1R,5S)-3,8-diazabicyclo[3.2.1]octan-3-yl)-8-fluoro-7-(3-hydroxynaphthalen-1-yl)quinazolin-2-yl)-3-((methylamino)methyl)pyrrolidin-3-yl)acetonitrile], the IC50 fell in the range of 0.0001 to 10 µM.
